In patent US20100210649A1, “PYRIDAZINONES AND FURAN-CONTAINING COMPOUNDS” (Sloan-Kettering Institute for Cancer Research, priority 2006, published 2010):
Where two headings read alike, the source gives them in different places.

Assays:
Type in all cases: cell-based, human
[1] = system: H1975; experiment: Non Small Cell Lung Cancer proliferation assay (Alamar Blue reduction), H1975; details: Homo sapiens, NCI-H1975, primary screening, 10 μM compound in 1% DMSO (v/v)
Method: (§1) These cells have a doubling time of 1-2 days. All cell types are adherent and grow in colonies. The cells should be kept at a density between 50,000 cells/mL -500,000 cells/mL to provide for optimum growth and adequate nutrition. The cell line should be maintained at 37° C. in a humidified atmosphere with 5% CO2 in a sterile cell culture incubator.
(§2) Non Small Cell Lung Cancer Proliferation Assay.
(§3) High Controls for this assay are made by treating Non Small Cell Lung Cancer cells with 5 ul of 10% DMSO. [Final concentration in this assay is 1% DMSO].
(§4) Important Note: All compounds for testing in this assay should be done at the final concentration of 1% DMSO.
(§5) After addition, the cells are placed in cell culture incubator at 37° C. for 48 hours for complete treatment.
(§6) After drug treatment, cytotoxicity is measured by Alamar Blue reduction.
(§7) The cells are incubated for 48 hours at 37° C. to complete the Alamar Blue reduction.
(§8) The final step in the assay is to measure the amount of Alamar Blue reduction. […] The Alamar Blue fluorescence is measured at an excitation of 530 nm and emission of 590 nm.
(§9) For the NSCLC project, the cell based assay was screened against a small molecule library of approximately 200,000 compounds. The compound library is stored in our automated robotic freezer (Biophile) at −20° C. in 100% DMSO. Compound freeze and thaw cycles are kept to a minimum. […] This assay was performed on a fully automated linear track robotic platform (CRS F3 Robot System, Thermo Electron Corp., Ontario, Canada) utilizing several integrated peripherals for plate handling, liquid dispensing, and readout detection. […] The microplates are then placed at 37° C. for 48 hours to complete treatment of cells with compounds. Next, 5 ul of alamar blue was added using a liquid dispenser (Flexprop Precision Dispenser, Perkin Elmer, Mass., USA) and incubated for 48 hours at 37° C. The alamar blue prompt fluorescence was measured on Victor V (Victor^3 V, Perkin Elmer, Mass., USA) and output data files were loaded into ORIS (Oncology Research Informatics System, MSKCC, NY, USA), a screening data acquisition and analysis platform.
(§10) The dose response studies were done with the following standard procedure. First, the cells were counted and dispensed at 250 cells/well into 384-well microplates with compound. The cells were incubated for 48 hours at 37 C to complete treatment, and then alamar blue was added for an additional 48 hours. Finally, alamar blue reduction was measured and the data was loaded into ORIS, our data screening acquisition platform.

[2] = system: H2030; experiment: Non Small Cell Lung Cancer proliferation assay (Alamar Blue reduction), H2030; details: Homo sapiens, NCI-H2030, primary screening, 10 μM compound in 1% DMSO (v/v)
Method: as §1, §2, §3, §4, §5, §6, §7, §8, §9, §10

[3] = system: H1650; experiment: Non Small Cell Lung Cancer proliferation assay (Alamar Blue reduction), H1650; details: Homo sapiens, NCI-H1650, primary screening, 10 μM compound in 1% DMSO (v/v)
Method: as §1, §2, §3, §4, §5, §6, §7, §8, §9, §10

[4] = system: H3255; experiment: Non Small Cell Lung Cancer proliferation assay (Alamar Blue reduction), H3255; details: Homo sapiens, NCI-H3255, primary screening, 10 μM compound in 1% DMSO (v/v)
Method: as §1, §2, §3, §4, §5, §6, §7, §8, §9, §10

[5] = H1975, read-out: PRIMARY HTS [%] H1975 (percentage inhibition)
[6] = H2030, read-out: PRIMARY HTS [%] H2030 (percentage inhibition)
[7] = H1650, read-out: PRIMARY HTS [%] H1650 (percentage inhibition)
[8] = H3255, read-out: PRIMARY HTS [%] H3255 (percentage inhibition)

SMILES | inhibition at 10 µM [1, 5] [%] | inhibition at 10 µM [2, 6] [%] | inhibition at 10 µM [3, 7] [%] | inhibition at 10 µM [4, 8] [%] | inhibition at 10 µM ([1]; read-out: percentage inhibition H1975) [%] | inhibition at 10 µM ([2]; read-out: percentage inhibition H2030) [%] | inhibition at 10 µM ([3]; read-out: percentage inhibition H1650) [%] | inhibition at 10 µM ([4]; read-out: percentage inhibition H3255) [%]
O=C(Nc1c(Cl)cccc1Cl)c1cc2ccccc2o1 [compound 60998] | 19 | 1 | 10 | 1 | – | – | – | –
Cc1ccc(C(=O)Nc2ccc(NC(=O)c3ccco3)c(C)c2)c(Cl)c1 [compound 61302] | 16 | -2 | 13 | 2 | – | – | – | –
O=C(Nc1ccc(Cl)cc1F)c1ccco1 [compound 66598] | 8 | 0 | 8 | 1 | – | – | – | –
Cc1ccc(C(=O)Nc2cc([N+](=O)[O-])ccc2C)o1 [compound 66776] | 2 | -3 | 13 | 2 | – | – | – | –
O=C(Nc1ccc(NC(=O)c2ccc(Cl)cc2Cl)cc1)c1ccco1 [compound 72456] | 9 | 8 | 12 | 7 | – | – | – | –
O=C(Nc1ccc(Cl)cc1O)c1ccco1 [compound 75072] | 0 | 5 | 13 | 1 | – | – | – | –
O=C(Nc1ccc(NC(=O)c2ccco2)cc1)c1ccc(-c2ccccc2)cc1 [compound 76739] | -9 | 3 | 13 | 5 | – | – | – | –
O=C(Nc1ccc(NC(=O)c2ccco2)c(O)c1)c1ccccc1 [compound 76839] | 3 | -6 | 20 | 2 | – | – | – | –
O=C(Nc1ccc(Cl)cc1)c1cc2c(ccc3ccccc32)o1 [compound 77021] | -11 | -1 | 16 | 4 | – | – | – | –
CC1CN(C(=O)c2ccc([N+](=O)[O-])o2)CC(C)O1 (stereo not drawn) [compound 77942] | -2 | 6 | 14 | 7 | – | – | – | –
O=C(c1ccc([N+](=O)[O-])o1)N1CCOCC1 [compound 77953] | -1 | -6 | 12 | 0 | – | – | – | –
O=C(Nc1cccc(Cl)c1)c1ccco1 [compound 78107] | -14 | 4 | 14 | 6 | – | – | – | –
O=C(Nc1ccc(Cl)cc1)c1ccco1 [compound 78158] | -2 | 6 | 20 | 4 | – | – | – | –
CCN(Cc1ccccc1)C(=O)c1ccc([N+](=O)[O-])o1 [compound 78535] | -2 | 26 | 41 | 8 | – | – | – | –
Cc1cc([N+](=O)[O-])ccc1NC(=O)c1ccco1 [compound 79434] | -7 | 0 | 4 | 4 | – | – | – | –
Nc1ccc(NC(=O)c2ccco2)c(Cl)c1 [compound 82456] | -15 | -2 | 6 | 2 | – | – | – | –
Cc1cc(Cl)ccc1NC(=O)CN1CCN(C(=O)c2ccco2)CC1 [compound 83809] | -10 | 2 | 22 | 2 | – | – | – | –
Cc1cccc(NC(=O)c2cc3cc([N+](=O)[O-])ccc3o2)c1 [compound 84487] | -5 | 5 | 27 | 3 | – | – | – | –

SMILES | inhibition at 10 µM [1, 5] [%] | inhibition at 10 µM [2, 6] [%] | inhibition at 10 µM [3, 7] [%] | inhibition at 10 µM [4, 8] [%] | inhibition at 10 µM ([1]; read-out: percentage inhibition H1975) [%] | inhibition at 10 µM ([2]; read-out: percentage inhibition H2030) [%] | inhibition at 10 µM ([3]; read-out: percentage inhibition H1650) [%] | inhibition at 10 µM ([4]; read-out: percentage inhibition H3255) [%]
O=C(Nc1cccc([N+](=O)[O-])c1)c1ccco1 [compound 87246] | -3 | 9 | 8 | 5 | – | – | – | –
O=C(Nc1ccccc1C(=O)NCc1ccc(Cl)cc1)c1ccco1 [compound 88935] | -10 | -1 | -4 | -2 | – | – | – | –
CC(C)(C)NC(=O)c1ccc(NC(=O)c2ccco2)cc1 [compound 91753] | -22 | -5 | -3 | -1 | – | – | – | –
O=C(Nc1ccc(N2CCN(Cc3ccccc3Cl)CC2)cc1)c1ccco1 [compound 92553] | -3 | 5 | 2 | 1 | – | – | – | –
O=C(Nc1ccc(N2CCN(Cc3ccccc3)CC2)cc1)c1ccco1 [compound 93911] | -22 | -3 | -4 | -1 | – | – | – | –
Cc1ccc(C(=O)N2CCN(c3ccc(NC(=O)c4ccco4)cc3)CC2)cc1 [compound 95436] | -12 | 2 | 2 | -3 | – | – | – | –
Cc1ccc(C(=O)Nc2ccc(NC(=O)c3ccco3)cc2)c(C)c1 [compound 97216] | -4 | -4 | -1 | 3 | – | – | – | –
O=C(Nc1ccc(N2CCN(C(=O)c3ccco3)CC2)cc1)c1ccco1 [compound 97253] | -15 | -5 | -2 | -3 | – | – | – | –
O=C(c1ccc([N+](=O)[O-])o1)N(c1ccccc1)c1ccccc1 [compound 98705] | 14 | 8 | -8 | 9 | – | – | – | –
O=C(c1ccc([N+](=O)[O-])o1)N1CCc2ccccc21 [compound 100403] | -13 | 3 | -13 | 2 | – | – | – | –
O=[N+]([O-])c1ccc(CN2CCN(c3ccccc3)CC2)o1 [compound 100483] | -8 | -1 | -1 | 1 | – | – | – | –
O=[N+]([O-])c1ccc(CN2CCN(Cc3ccccc3)CC2)o1 [compound 100507] | -15 | 7 | -3 | 1 | – | – | – | –
COc1ccc(N2CCN(Cc3ccc([N+](=O)[O-])o3)CC2)cc1 [compound 100588] | -14 | 5 | -5 | 4 | – | – | – | –
CN1CCN(Cc2ccc([N+](=O)[O-])o2)CC1 [compound 100652] | -2 | -6 | -12 | -3 | – | – | – | –
O=[N+]([O-])c1ccc(CN2CCN(c3ccccc3F)CC2)o1 [compound 100792] | -9 | 43 | -5 | 1 | – | – | – | –
Cc1cccc(N2CCN(Cc3ccc([N+](=O)[O-])o3)CC2)c1C [compound 101070] | -18 | 5 | 2 | 1 | – | – | – | –
O=C(Nc1ccc(-c2ccc([N+](=O)[O-])cc2)cc1)c1ccco1 [compound 102031] | -11 | -1 | -2 | 3 | – | – | – | –
O=c1c(Cl)c(Cl)cnn1-c1ccc([N+](=O)[O-])cc1 [compound 103529] | – | – | – | – | 97 | 15 | -13 | 1
